Details of series [1]: method as in earlier work. Conditions: ref EPI suite (Experimental database or KOWWIN v1.67) and ChemAxon; cited from earlier work.
For series [2] the following is noted: ref SCIfinder; cited from earlier work.
The subject of series [3] is zebrafish (Danio rerio) eleutheroembryos. Briefly: Bioconcentration experiment (OECD 305 based), 48 h exposure. As to conditions: pH 7.8; for BCF48h: Cf(48h)/Cw(48h); for BCFk: k1/k2, first-order one-compartment model, 48 h. Format: in vivo. The method, then: Zebrafish eleutheroembryos were cultured from wild-type adult zebrafish bred and maintained in AZTI Zebrafish Facility (REGA ES489010006105) under standard conditions. The OECD 305 technical guidance was used as reference to establish the experimental conditions for growing as well as the nominal concentrations for the contaminants (dissolved oxygen ≥ 60 %, 27°C and pH 7.8 ± 0.2). Exposure solutions were prepared with the composition of fresh river water (ISO 73463 [43]): 220.5 mg of CaCl2, 63 mg of NaHCO3, 5.5 mg of KCl, and 60.1 mg of MgSO4 per liter of distilled water in plastic tanks.
[…]. […] […].
Bioconcentration factor (BCF) was estimated as the ratio between the concentration of the compound in the target organism, at the maximum time of exposure and the mean calculated in the exposure medium (BCF48h). […]
Where Cf is the concentration in fish (ng·g^-1), t is the exposure time (h), k1 is the first-order uptake constant (L·kg^-1·h^-1), Cw is the concentration of the chemical in the exposure media (μg·L^-1), and k2 is the first-order elimination rate constant (h^-1). Assuming a negligible concentration in fish samples at t0 and considering its constant in the exposure medium, the equations can be expressed as: 3 Cfuptake=k1/k2.Cw1−e^−k2t 4 Cfdepuration=Cf,0.e^−k2t
Where Cf,0 denotes the compound concentration in the organism, when the depuration phase starts. Experimental kinetics data were done using the software NONLIN 5.1, which is specific for no linear adjustments (Nashville, TN). BCFs were calculated applying the two procedures, getting BCF48h (Cf (48h) / Cw (48h)) and BCFk (k1/k2) for comparison purposes when steady state is reached.

In a further series the test system is human liver microsomes. On the set-up: method as in PMID 1389950. Conditions: citalopram metabolized by cytochrome P450 isozyme to N-desmethylcitalopram; cited from earlier work.
A short description of series [4]: SSRI metabolization in eleutheroembryos exposed to the mixture of parent compounds. Conditions: zebrafish (Danio rerio), whole eleutheroembryos (larvae), other: waterborne exposure in exposure medium, pH 7.8, metabolite concentration in eleutheroembryos; for concentration at 6 h: t = 6h; for concentration at 24 h: t = 24h; for concentration at 45 h: t = 45h; for concentration at 48 h: t = 48h. Here is the method:
(§1) […] The concentration of the target analyte was determined in both eleutheroembryos and exposure medium all throughout the experiment.
(§2) Fish roe samples from lumpfish and zebrafish eleutheroembryos: 10 mg of wet weigh (w/w) fortified with a solution containing all tested pharmaceuticals at 240 ng·g^-1 and paroxetine d6 as IS at 100 ng·g^-1 was a mixture with 500 μL of acetonitrile and sonicated with ultrasonic probe at 40% of amplitude for 60 s to assist the extraction of the selected compounds and the mixture was centrifuged. The residue was discarded, and the supernatant was cleaned using 100 mg of C18, vortexed for 30 s, and centrifuged. Acetonitrile was led to evaporation before derivatization and injection to the GC-MS following the same steps as described above.

The test system of series [5] is zebrafish (Danio rerio) eleutheroembryos. The series is described as above. Here is the method: as §1, §2
Series [6] relates to Japanese medaka (Oryzias latipes). As to conditions: cited from earlier work; for average concentration in fish: Japanese medaka exposed to fluoxetine, day 7.
In another series the test system is adult zebrafish. As to conditions: cited from earlier work.
The subject of another series is zebrafish larvae. As to conditions: cited from earlier work; for calculated BCFs: individual compounds and mixtures at 5, 10 and 25 μg·L^-1.
Series [7] concerns adult male fathead minnows (Phimephales promelas). Conditions: plasma, 3, 11 and 28 ng·L^-1 in water; cited from earlier work.
The mark [8] stands for this setting: parent exposure concentration 80 μg·L^-1.
The mark [9] stands for this setting: parent exposure concentration 300 μg·L^-1.
Setting [10] is: parent exposure concentration 80 μg·L^-1, t = 6h.
Where [11] appears, read: parent exposure concentration 80 μg·L^-1, t = 24h.
Setting [12] is: parent exposure concentration 80 μg·L^-1, t = 45h.
The mark [13] stands for this setting: parent exposure concentration 80 μg·L^-1, t = 48h.
The mark [14] stands for this setting: parent exposure concentration 300 μg·L^-1, t = 6h.
[15] abbreviates: parent exposure concentration 300 μg·L^-1, t = 24h.
Where [16] appears, read: parent exposure concentration 300 μg·L^-1, t = 45h.
[17] abbreviates: parent exposure concentration 300 μg·L^-1, t = 48h.

Where a name gives a salt, the structure may show the parent alone. Read-outs that look alike come from different tables or passages of the source.

The pKa is the pH at which an ionisable group is half protonated.

Regarding `CN(C)CCCC1(c2ccc(F)cc2)OCc2cc(C#N)ccc21` (stereo not shown) [Citalopram, citalopram hydrobromide], the Log kow in series [1] is recorded as 3.74.

In the case of `CNCCCC1(c2ccc(F)cc2)OCc2cc(C#N)ccc21` (stereo not shown) [Desmethylcitalopram, desmethylcitalopram hydrochloride], the Log kow in [1] was 3.38. Besides, the pKa in series [2] is given as 10.54. Further, the BCF48h is reported as 0.69 in series [3] (nominal 80 μg·L^-1) and 0.21 in series [3] (nominal 300 μg·L^-1). In addition, the BCFk in [3] (nominal 80 μg·L^-1) is 0.7; in series [3] (nominal 300 μg·L^-1), 0.35. The “ratio for the metabolite” value in the series on human liver microsomes is on record as 5–10 fold. The concentration at 6 h is 8.9 ng/g in series [4] (setting [8]) and 118 ng/g in series [4] (setting [9]). Further, the concentration at 24 h in series [4] (setting [8]) was determined as 10.1 ng/g; in series [4] (setting [9]) it was 297 ng/g. Besides, the figures for the concentration at 45 h in [4] (setting [8]) and in [4] (setting [9]) were 14.3 ng/g and 203 ng/g, respectively. Moreover, the concentration at 48 h in [4] (setting [8]) was determined as 32.3 ng/g; in series [4] (setting [9]), 123 ng/g. For the same compound, the “ratio metabolite / parent compound in the larvae” value was found to be 0.07 in [5] (setting [10]); 0.06 in series [5] (setting [11]); 0.15 in series [5] (setting [12]); 0.54 in series [5] (setting [13]); 0.47 in series [5] (setting [14]); 0.78 in series [5] (setting [15]). In addition, the “ratio metabolite / parent compound in the larvae” value is on record as 0.15 in series [5] (setting [16]) and 0.26 in [5] (setting [17]).

As for `CNCCC(Oc1ccc(C(F)(F)F)cc1)c1ccccc1` (stereo not shown) [Fluoxetine, Fluoxetine hydrochloride], the “average concentration in fish” value in [6] was 40.8 ± 5.0 ng·g^-1 w.w. Besides, in series [6] (Japanese medaka, nominal fluoxetine concentration 640 ng·L^-1), the “kinetic BCF” value was 80. In addition, the BCF in [6] (Japanese medaka, pH 7) is 9 L/kg; in series [6] (Japanese medaka, pH 8), 30 L/kg; in series [6] (Japanese medaka, pH 9), 260 L/kg; in the series with adult zebrafish (exposed to 0.9 and 3.20 μg·L^-1), 20 L/kg. For the same compound, the Log kow in [1] is 4.65. The bioaccumulation in the series with zebrafish larvae (high concentration exposure 5000 μg·L^-1) is recorded as 195; with zebrafish larvae (low and moderate concentrations 10–50 μg·L^-1), “around 30”. Further, the “calculated BCFs” value with zebrafish larvae is listed as 94–170.

With `NCCC(Oc1ccc(C(F)(F)F)cc1)c1ccccc1` (stereo not shown) [Norfluoxetine, norfluoxetine hydrochloride], the “average concentration in fish” value in series [6] was 64.3 ± 8.7 ng·g^-1 w.w. For the same compound, in series [2], the pKa is 9.05.

`N[C@H]1CC[C@@H](c2ccc(Cl)c(Cl)c2)c2ccccc21` [Norsertraline, norsertraline hydrochloride]: in series [1], the Log kow is 4.72. Also, the BCF48h in series [3] (nominal 50 μg·L^-1) worked out at 26.5. Also, the BCFk in [3] (nominal 50 μg·L^-1) is on record as 38. The “metabolite concentration in eleutheroembryos” value came to 44.4 ng/g in series [5] (setting [10]); 504.0 ng/g in [5] (setting [11]); 751.8 ng/g in series [5] (setting [12]); 731.3 ng/g in [5] (setting [13]); 141.4 ng/g in series [5] (setting [14]); 1228.7 ng/g in [5] (setting [15]). The figures for the “metabolite concentration in eleutheroembryos” value in series [5] (setting [16]) and in series [5] (setting [17]) were 1968.2 ng/g and 2594.7 ng/g, respectively. Moreover, the “ratio metabolite / parent compound in the larvae” value in series [5] (setting [10]) is on record as 0.17; in [5] (setting [11]), 0.12; in [5] (setting [12]) it was 0.33; in [5] (setting [13]) it was 0.16; in series [5] (setting [14]), 0.17; in series [5] (setting [15]), 0.18. Moreover, the “ratio metabolite / parent compound in the larvae” value in [5] (setting [16]) is listed as 0.41; in series [5] (setting [17]) it was 0.47.

For the compound `Fc1ccc([C@@H]2CCNC[C@H]2COc2ccc3c(c2)OCO3)cc1` [Paroxetine, paroxetine hemihydrate], the Log kow in [1] is 3.95. Further, the pKa in series [2] is on record as 9.90. The “calculated BCFs” value in the series with zebrafish larvae is on record as 190–290.

In the case of `CN[C@H]1CC[C@@H](c2ccc(Cl)c(Cl)c2)c2ccccc21` [Sertraline, sertraline hydrochloride], the bioaccumulation values entry in series [7] was “approximately 80”. Also, the Log kow in [1] is given as 5.29. In addition, the BCF with adult zebrafish (exposed to 0.2 and 0.76 μg·L^-1) is 50 to 70 L/kg.

Values taken from article PMC8405463, “Development of a method for assessing the accumulation and metabolization of antidepressant drugs in zebrafish (Danio rerio) eleutheroembryos” (Analytical and Bioanalytical Chemistry, 2021).
